# US5070210A, “Novel ketenimines as intermediates for insecticides” (ICI Americas Inc., priority 1990, dated 1991)
# Legend:
# Type in all cases: in vivo
# [1] = test system: Cabbage Looper [Trichoplusia ni (Hubner)]; assay: Cabbage looper insecticidal test; conditions: second-instar larvae, percent in solution; 3-5 days
# In short: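 Steps: dilute compound in 50-50 acetone-water from 0.1% downward; immerse cotyledon pieces 2-3 s and dry; place in humid petri dishes with five second-instar larvae; record mortality at 3-5 days. Dosage-mortality curves yield LC50 as percent in solution.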
# [2] = test system: Housefly [Musca domestica]; assay: Housefly insecticidal test; conditions: μg per 25 female flies; mortality after 48 hours
# In short: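 Dose range started at 100 μg per 25 female flies and went downward. Insects (1-2 days old) contacted a dried acetone/peanut-oil deposit in dishes; LC50 values come from dosage-mortality curves at 48 h.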
# [3] = test system: Tobacco Budworm [Heliothis virescens (Fabricius)] eggs; assay: Tobacco budworm egg test; conditions: 2-day old eggs, percent in solution
# In short: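 Mortality of dipped eggs served as read-out, recorded after untreated controls hatched and began feeding. Treatments used acetone solutions from 0.1% downward, with eggs incubated at 78° F; LC50 is expressed as percent of compound in the solution.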
# [4] = test system: Maize weevil [Sitophilus Zeamais (Motschulsky)]; assay: Maize weevil insecticidal test; conditions: adult weevils, percent in solution; 48 hours
# Description: The compounds in Tables 1 and 2 above were tested for insecticidal activity using the following testing procedures. LC50 values, based on the results of these tests and calculated according to dosage-mortality curves, are expressed in Table 3.
# Maize weevil [Sitophilus Zeamais (Motschulsky)]:
# Test compounds were diluted in a 50:50 acetone:water solution. Four corn seeds [Zea mays (L.)] which had been immersed in test solutions for 2-3 seconds and allowed to dry were placed in containers together with 10 adult weevils. The containers were covered and kept at a temperature of about 25° C. Mortality was recorded after 48 hours. Test concentrations ranged from 0.01% down to that at which 50% mortalilty occurred. The LC50 values are expressed below in Table 3 under the heading "MW" in terms of percent of the test compound in solution.
SMILES,"LC50, CL [1]","LC50, HF [2]","LC50, TBW, E (TBW-E) [3]","LC50, MW [4]"
CCOc1cccc(N=C(OCc2ccc(F)c(Oc3ccc(F)cc3)c2)C(C)C)c1 [Compound 426],0.002%,> 100 µg,> 0.1%,> 0.01%
CC(C)C(=Nc1ccc(C(F)(F)F)cc1Cl)OCc1cccc(Oc2ccc(F)cc2)c1 [Compound 427],< 0.1%,> 100 µg,> 0.1%,> 0.01%
CC(C)C(=Nc1ccc(C(F)(F)F)cc1Cl)OCc1ccc(F)c(Oc2ccccc2)c1 [Compound 428],0.0017%,> 100 µg,> 0.1%,> 0.01%
CC(C)C(=Nc1ccc(OCC(F)(F)F)c(F)c1)OCc1cccc(Oc2ccc(Cl)cc2)c1 [Compound 429],0.0017%,> 100 µg,< 0.1%,> 0.01%
C=C(C)C(=Nc1ccc(C(F)(F)F)cc1)OCc1cccc(Oc2ccccc2)c1 [Compound 430],0.001%,< 100 µg,0.032%,0.004%
CC(C)C(=Nc1ccc(C(F)(F)F)c(Br)c1)OCc1ccc(F)c(Oc2ccccc2)c1 [Compound 434],0.0017%,< 100 µg,> 0.1%,0.009%
COc1ccc(N=C(OCc2ccc(F)c(Oc3ccccc3)c2)C(C)C)cc1F [Compound 435],0.002%,< 100 µg,0.04%,> 0.01%
CC(C)C(=Nc1cccc(OC(F)(F)F)c1)OCc1ccc(F)c(Oc2ccc(Cl)cc2)c1 [Compound 436],0.00075%,< 100 µg,< 0.1%,> 0.01%
CC(C)C(=Nc1cccc(OC(F)(F)F)c1)OCc1ccc(F)c(Oc2ccccc2)c1 [Compound 437],0.00075%,< 100 µg,0.025%,> 0.01%
CCc1ccc(N=C(OCc2cccc(Oc3ccc(F)cc3)c2)C(C)C)cc1Cl [Compound 438],0.0009%,> 100 µg,< 0.1%,> 0.01%
CCOc1ccc(N=C(OCc2ccc(F)c(Oc3ccccc3)c2)C(C)C)cc1F [Compound 439],0.00045%,> 100 µg,> 0.1%,> 0.01%
CCCc1ccc(N=C(OCc2ccc(F)c(Oc3ccc(F)cc3)c2)C(C)C)cc1 [Compound 440],0.002%,> 100 µg,< 0.1%,> 0.01%
CC(C)C(=Nc1ccc(Cl)c(F)c1)OCc1ccc(F)c(Oc2ccc(F)cc2)c1 [Compound 441],0.000025%,< 100 µg,0.016%,0.006%
C=C(C)C(=Nc1ccc(C(F)(F)F)cc1)OCc1cccc(Oc2ccc(F)cc2)c1 [Compound 442],0.0007%,< 100 µg,0.035%,> 0.01%
Fc1ccc(COC(=Nc2ccc(C(F)(F)F)cc2)C2CC2)cc1Oc1ccccc1 [Compound 443],0.00015%,< 100 µg,0.017%,< 0.01%
Fc1ccc(COC(=Nc2ccc(C(F)(F)F)cc2)C2CC2)cc1Oc1ccc(Cl)cc1 [Compound 444],0.00015%,> 100 µg,0.023%,> 0.01%
CC(C)C(=Nc1ccc(C(F)(F)F)cc1[N+](=O)[O-])OCc1ccc(F)c(Oc2ccccc2)c1 [Compound 445],0.00045%,< 100 µg,> 0.1%,> 0.01%
CCOc1ccc(N=C(OCc2cccc(Oc3ccc(F)cc3)c2)C(C)C)cc1Br [Compound 446],0.0008%,> 100 µg,< 0.1%,> 0.01%
CC(C)C(=Nc1ccc(F)c(I)c1)OCc1cccc(Oc2ccc(F)cc2)c1 [Compound 449],0.0001%,13 µg,0.025%,0.0075%
